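Results reflect a 48-hour exposure of cells in 96-well plates to compound at five concentrations. GI50 marks 50% less growth.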 The source made the active and inactive calls. No stated cut-off is given here; in the data, active = GI50 up to about 1.1 µM and inactive = higher.
What was measured:
Assay in all cases: DTP human tumour cell line panel, 48 h
A549 = tested on: A549
HCT-116 = tested on: HCT-116
UO-31 = tested on: UO-31
OVCAR-8 = tested on: OVCAR-8
OVCAR-3 = tested on: OVCAR-3
SNB-19 = tested on: SNB-19
LXFL 529 = tested on: LXFL 529
EKVX = tested on: EKVX
SF-295 = tested on: SF-295
NCI-H226 = tested on: NCI-H226
LOX IMVI = tested on: LOX IMVI
SK-MEL-5 = tested on: SK-MEL-5
SR = tested on: SR
IGROV-1 = tested on: IGROV-1
KM12 = tested on: KM12
HCC 2998 = tested on: HCC 2998
SNB-75 = tested on: SNB-75
NCI-H460 = tested on: NCI-H460
RPMI-8226 = tested on: RPMI-8226
HOP-62 = tested on: HOP-62

| Compound | GI50 (A549) | GI50 (HCT-116) | GI50 (UO-31) | GI50 (OVCAR-8) | GI50 (OVCAR-3) | GI50 (SNB-19) | GI50 (LXFL 529) | GI50 (EKVX) | GI50 (SF-295) | GI50 (NCI-H226) | GI50 (LOX IMVI) | GI50 (SK-MEL-5) | GI50 (SR) | GI50 (IGROV-1) | GI50 (KM12) | GI50 (HCC 2998) | GI50 (SNB-75) | GI50 (NCI-H460) | GI50 (RPMI-8226) | GI50 (HOP-62) |
| --- | --- | --- | --- | --- | --- | --- | --- | --- | --- | --- | --- | --- | --- | --- | --- | --- | --- | --- | --- | --- |
| C=CCOC(C)n1c(C)c(Br)c(=O)[nH]c1=O (stereo not drawn) | > 100 µM (inactive) | > 100 µM (inactive) | > 100 µM (inactive) | > 100 µM (inactive) | > 100 µM (inactive) | > 100 µM (inactive) | > 100 µM (inactive) | > 100 µM (inactive) | > 100 µM (inactive) | > 100 µM (inactive) | > 100 µM (inactive) | > 100 µM (inactive) | > 100 µM (inactive) | > 100 µM (inactive) | > 100 µM (inactive) | > 100 µM (inactive) | > 100 µM (inactive) | > 100 µM (inactive) |  |  |
| CN(C)/N=N/c1c[nH]nc1C(N)=O | > 100 µM (inactive) | > 100 µM (inactive) |  | > 100 µM (inactive) | > 100 µM (inactive) | > 100 µM (inactive) | > 100 µM (inactive) | > 100 µM (inactive) | > 100 µM (inactive) | > 100 µM (inactive) | 53.1 µM (inactive) | > 100 µM (inactive) | 31.3 µM (inactive) | > 100 µM (inactive) | > 100 µM (inactive) | > 100 µM (inactive) | > 100 µM (inactive) | > 100 µM (inactive) | > 100 µM (inactive) | > 100 µM (inactive) |
| O=C(Nc1cc(Cl)c(Cl)cc1Cl)C(=O)C(C(=O)c1ccccc1)C1OC(=O)c2ccccc21 (stereo not drawn) | > 100 µM (inactive) | > 100 µM (inactive) | > 100 µM (inactive) | > 100 µM (inactive) | > 100 µM (inactive) | > 100 µM (inactive) | > 100 µM (inactive) | > 100 µM (inactive) | > 100 µM (inactive) | > 100 µM (inactive) | > 100 µM (inactive) |  | 97.7 µM (inactive) | > 100 µM (inactive) | > 100 µM (inactive) | > 100 µM (inactive) | 17.9 µM (inactive) | > 100 µM (inactive) | > 100 µM (inactive) | > 100 µM (inactive) |
| O=C1c2ccccc2C(=O)C1C(c1ccc(F)cc1)C1C(=O)c2ccccc2C1=O | > 100 µM (inactive) | > 100 µM (inactive) | > 100 µM (inactive) | > 100 µM (inactive) | > 100 µM (inactive) | > 100 µM (inactive) | > 100 µM (inactive) | > 100 µM (inactive) | > 100 µM (inactive) | > 100 µM (inactive) | 25.9 µM (inactive) | > 100 µM (inactive) | 41.5 µM (inactive) |  | > 100 µM (inactive) | > 100 µM (inactive) | 55 µM (inactive) | > 100 µM (inactive) | 48.3 µM (inactive) | > 100 µM (inactive) |
| COc1ccc(Nc2nc3cc(C(F)(F)F)ccc3nc2-c2ccccc2)cc1OC | 25.9 µM (inactive) | 12.6 µM (inactive) | 11.8 µM (inactive) | 25.8 µM (inactive) | 18.7 µM (inactive) |  | 49 µM (inactive) | 17.3 µM (inactive) | 11.3 µM (inactive) | 15.8 µM (inactive) | 19.8 µM (inactive) | 20.3 µM (inactive) | 75.9 µM (inactive) | 24.9 µM (inactive) | > 100 µM (inactive) | > 100 µM (inactive) | 28.4 µM (inactive) | 27.7 µM (inactive) |  | 2.74 µM (inactive) |
| Cc1ccc(NC(=O)NC(=O)c2ccc([N+](=O)[O-])cc2[N+](=O)[O-])cc1Oc1ncc(Cl)cn1 | 0.542 µM (active) | 0.333 µM (active) | 0.735 µM (active) | 0.468 µM (active) | 0.355 µM (active) | 0.48 µM (active) | 0.36 µM (active) | > 10 µM (inactive) | 0.406 µM (active) | 0.449 µM (active) | 0.637 µM (active) | 0.195 µM (active) | 0.409 µM (active) | 1.13 µM (inactive) | 0.252 µM (active) | 0.271 µM (active) | 0.0752 µM (active) | 0.338 µM (active) | 0.292 µM (active) | 0.277 µM (active) |
| Clc1ccc(C2SCc3nc4ccccc4n32)c(Cl)c1 (stereo not drawn) | 14.5 µM (inactive) | 14 µM (inactive) | 12.1 µM (inactive) | 16.9 µM (inactive) | 14.1 µM (inactive) | 18 µM (inactive) | 11.9 µM (inactive) | 11.6 µM (inactive) | 8.36 µM (inactive) | 14.8 µM (inactive) | 15.3 µM (inactive) | 7.93 µM (inactive) | 14.7 µM (inactive) | 15.5 µM (inactive) | 14.7 µM (inactive) | 14.6 µM (inactive) | 19.3 µM (inactive) | 16.6 µM (inactive) | 6.92 µM (inactive) | 14 µM (inactive) |
